Patent US20120101153A1, “ROCAGLAOL DERIVATIVES AS CARDIOPROTECTANT AGENTS AND AS ANTINEOPLASTIC AGENTS” (Universite De Strasbourg, priority 2008, published 2012)
Like-named read-outs stand apart in the source and are kept apart here.

How the values were obtained:
[1] = test system: MCF7 (breast adenocarcinoma); assay: MTS assay, inhibition of cell proliferation, MCF7; type: cell-based; conditions: Homo sapiens, read-out: Inhibition of cell proliferation (IC50)
From the text: (§1) The medium was changed every 2-3 days.

[2] = test system: Resistant MCF7 (MCF7R) cells; assay: MTS assay, inhibition of cell proliferation, MCF7R; type: cell-based; conditions: Homo sapiens, 72 h
From the text: as §1

[3] = test system: HCT15 (colon adenocarcinoma); assay: MTS assay, inhibition of cell proliferation, HCT15; type: cell-based; conditions: Homo sapiens, read-out: Inhibition of cell proliferation (IC50)
From the text: as §1

HepG2 (hepatocarcinoma) = assay: MTS assay, inhibition of cell proliferation, HepG2; type: cell-based; conditions: Homo sapiens, read-out: Inhibition of cell proliferation (IC50)
Procedure: Experiments were performed in duplicate (n=3).

[4] = test system: KB (epidermoid carcinoma); assay: MTS assay, inhibition of cell proliferation, KB; conditions: Homo sapiens
Procedure: The human cell lines KB (epidermoid carcinoma) and HepG2 (hepatocarcinoma) were obtained from ECACC (Salisbury, UK) and grown in D-MEM medium supplemented with 10% fetal calf serum, in the presence of penicilline, streptomycine and fungizone in 75 cm^2 flask under 5% CO2.
(§4) Cells were plated in 96-well tissue culture plates in 200 μl medium and cultured during 24 h before to be treated with compounds dissolved in DMSO (compound concentrations at a range of 0.5 nM to 10 μM) using a Biomek 2000 or 3000 (Beckman). Controls received the same volume of DMSO (1% final volume). After a 72 h exposure, MTS reagent (Promega) was added and incubated for 3 h at 37° C. The absorbance was then monitored at 490 nm and results were expressed as the value [1-(OD490 treated/OD490 control)×100] corresponding to the percentage of inhibition of cell proliferation.

[5] = test system: HL60 (promyeocytic leukaemia); assay: MTS assay, inhibition of cell proliferation, HL60; conditions: Homo sapiens
Procedure: (§5) The human cell lines HL60 (promyeocytic leukaemia), MDA435 (breast ductal carcinoma; ATCC reference HBT129) and MDA231 (breast adenocarcinoma; ATCC reference HBT26) were obtained from ATCC. […] SK-OV3 cells (or OV3, ATCC reference HTB77) were kindly provided by NCI (Frederick, Md.).
(§6) The cell lines HCT116, HCT15, MCF7, MDA435, MDA231, PC3, OV3, HL60R and HL60 were grown in RPMI medium, in particular supplemented with 10% fetal calf serum, in the presence of penicillin, streptomycin and fungizone in 75 cm^2 flask under 5% CO2. […] The medium was changed every 2-3 days.
as §4

[6] = test system: HCT116 (colon adenocarcinoma); assay: MTS assay, inhibition of cell proliferation, HCT116; conditions: Homo sapiens
Procedure: (§7) The human cell lines HCT116 (colon adenocarcinoma), PC3 (prostate adenocarcinoma) and HCT15 (colon adenocarcinoma) were obtained from ECACC (Wiltshire, UK).
(§8) The cell lines HCT116, HCT15, MCF7, MDA435, MDA231, PC3, OV3, HL60R and HL60 were grown in RPMI medium, in particular supplemented with 10% fetal calf serum, in the presence of penicillin, streptomycin and fungizone in 75 cm^2 flask under 5% CO2.
as §4

H9c2 cardiomyocytes [7] = conditions: for Activity for cytotoxicity and cardioprotection (FIG. 13): 10 or 100 nM, apoptosis induced by doxorubicin in H9c2 cells
Procedure: as §1
(§2) H9c2 cells were plated for 24 h in 100 mm Petri dishes at 0,7×10^4 cells/cm^2. Next, the cells were washed and cultured for 12 h in glucose-free medium (Gibco, DMEM w-L-glutamine, w/o D-glucose, sodium pyruvate) supplemented with only 1% fetal calf serum. […] Cells were washed, and subsequently FACS analyses were performed.
(§3) Apoptosis was analysed by fluorescence-activated cell sorting analysis (FACS-Calibur, Becton-Dickinson Biosciences). 0,5×10^6 cells were harvested, washed with Annexin Binding Buffer (0,01 M HEPES, 0,14 M NaCl, 2,5 mM CaCl2) and labeled with annexin V (dilution 1:50) and propidium iodide (6,7 μg/ml). All assays were performed at least in triplicate, and the results were analyzed by BD Cell Quest Pro software (Becton-Dickinson Biosciences, Le Pont De Claix, France).

mice = assay: In vivo cardioprotection against doxorubicin in mice
Procedure: Administration of FL3 (0.1 mg/kg i.p., 2×/day for 4 days) protected mice from the cardiotoxicity induced by doxorubicine (20 mg/kg i.p.): they observed a 70% survival rate for the mice that received FL3. The survival rate for the mouse who received the vehicle was only 30% (see Table 3).

H9c2 cardiomyocytes [8] = test system: H9c2 cardiomyocytes
Procedure: as §2, §3

SK-OV3 cells (OV3) = assay: MTS assay, cytotoxicity, OV3; conditions: Homo sapiens, SK-OV-3, read-out: Cytotoxicity (IC50)
Procedure: as §5, §6, §4

[9] = test system: PC3 (prostate adenocarcinoma); assay: MTS assay, cytotoxicity, PC3; conditions: Homo sapiens, read-out: Cytotoxicity (IC50)
Procedure: as §7, §8, §4

[10] = test system: HL60R (resistant HL60 cells); assay: MTS assay, cytotoxicity, HL60R; conditions: Homo sapiens, read-out: Cytotoxicity (IC50)
Procedure: as §8, §4

[11] = test system: MDA435 (breast ductal carcinoma); assay: MTS assay, cytotoxicity, MDA435; conditions: Homo sapiens, MDA435, read-out: Cytotoxicity (IC50)
Procedure: as §5, §6, §4

[12] = test system: MDA231 (breast adenocarcinoma); assay: MTS assay, cytotoxicity, MDA231; conditions: Homo sapiens, MDA-MB-231, read-out: Cytotoxicity (IC50)
Procedure: as §5, §6, §4

[13] = cumulative dose of doxorubicin 700 mg/m^2; cited from earlier work
[14] = MTS, Table 1, read-out: Inhibition of cell proliferation (IC50)
[15] = HCT-15, HCT15, MTS, 72 h, Table 1
[16] = 72 h, read-out: Inhibition of cell proliferation (IC50)
[17] = HL-60, 72 h, read-out: Inhibition of cell proliferation (IC50)
[18] = HCT-116, 72 h, read-out: Inhibition of cell proliferation (IC50)
[19] = HL-60, read-out: Cytotoxicity (IC50)
[20] = HCT-116, read-out: Cytotoxicity (IC50)

Row | SMILES | IC50 ([1]; MCF7, MTS, 72 h, Table 1) | IC50 [2, 14] | IC50 [3, 15] | IC50 (HepG2 (hepatocarcinoma); HepG2, MTS, 72 h, Table 1) | IC50 [4, 16] | IC50 [5, 17] | IC50 [6, 18] | IC50 (SK-OV3 cells (OV3)) | IC50 [9] | IC50 [10] | IC50 [11] | IC50 [12] | IC50 ([4]; read-out: Cytotoxicity (IC50)) | IC50 [5, 19] | IC50 [6, 20] | other results
1 | COc1ccc([C@@]23Oc4cc(OC)cc(OC)c4[C@]2(O)[C@H](O)C[C@H]3c2ccccc2)cc1 (racemic) [FL1, rocaglaol] | 4 nM | 4 nM | 6 nM | 70 nM | 2 nM | 3 nM | 6 nM | – | – | – | – | – | – | – | – | –
2 | COc1cc(OC)c2c(c1)O[C@@]1(c3ccc(Br)cc3)[C@H](c3ccccc3)C[C@@H](O)[C@@]21O (racemic) [FL3, bromo-demethoxy-rocaglaol] | – | – | – | – | < 1 nM | < 1 nM | < 1 nM | 8.5 nM | 17 nM | 4.5 nM | 8.7 nM | 3.8 nM | 15 nM | 5.5 nM | 7.6 nM | IC50 ([1]; MCF7, 72 h): 1 nM; IC50 ([2]; read-out: Inhibition of cell proliferation (IC50)): < 1 nM; IC50 ([3]; HCT-15, 72 h): 1 nM; IC50 (HepG2 (hepatocarcinoma); HepG2, 72 h): 4 nM; Diminution of the apoptosis induced by doxorubicin (H9c2 cardiomyocytes [7]; 1 nM FL3, 1 μM doxorubicin, H9c2): 70%; Alleviation of the apoptosis induced by doxorubicin (H9c2 cardiomyocytes [7]; 50 nM FL3, 20 times superior concentration of doxorubicin, H9c2): 61%; Concentration of maximum inhibition of doxorubicin-induced apoptosis (H9c2 cardiomyocytes [7]; H9c2, FIG. 8B): 1 nM; Survival rate (mice; Doxorubicin (1 x, 20 mg/kg i.p.) + FL3 (8 x, 0.1 mg/kg i.p.)): 70%; Survival rate (mice; FL3 alone (8 x, 0.1 mg/kg i.p.)): 100%; Effect on KRIBB3-induced cytotoxicity (H9c2 cardiomyocytes [8]; co-treatment FL3 100 nM with KRIBB3 1 μM): significantly alleviated; Effect on KRIBB3 worsening of doxorubicin cytotoxicity (H9c2 cardiomyocytes [8]; doxorubicin, KRIBB3 and FL3 all together): reversed
3 | COc1ccc2c(c1)O[C@@]1(c3ccc(Br)cc3)[C@H](c3ccccc3)C[C@@H](O)[C@@]21O (racemic) [FL6, 3a-(4-Bromophenyl)-8-methoxy-3-phenyl-1,2,3,3a-tetrahydro-cyclopenta[b]benzofuran-1,8b(1H)-diol] | – | – | – | – | – | – | – | 251 nM | 224 nM | 67 nM | 205 nM | 48 nM | 255 nM | 115 nM | 108 nM | Activity for cytotoxicity and cardioprotection (FIG. 13) (H9c2 cardiomyocytes [7]): no or weak such activity
4 | COC(=O)[C@H]1[C@@H](O)[C@@]2(O)c3ccc(OCCCO)cc3O[C@@]2(c2ccc(OC)cc2)[C@@H]1c1ccccc1 (racemic) [FL11] | – | – | – | – | – | – | – | 1460 nM | 2520 nM | 1280 nM | 1110 nM | 1070 nM | 1710 nM | 1120 nM | 1420 nM | Activity for cytotoxicity and cardioprotection (FIG. 13) (H9c2 cardiomyocytes [7]): no or weak such activity
5 | COc1cccc2c1C(=O)c1c(O)c3c(c(O)c1C2=O)C[C@@](O)(C(=O)CO)C[C@@H]3O[C@H]1C[C@H](N)[C@H](O)[C@H](C)O1 [Doxorubicin, doxorubicin, reference compound] | 12 nM | 58 nM | 81 nM | 240 nM | 1 nM | 13 nM | 6 nM | 41 nM | 186 nM | – | 3.5 nM | 0.047 nM | – | 30 nM | – | Apoptosis induced (total apoptotic cells) (H9c2 cardiomyocytes [7]; 1 μM doxorubicin for 14 h, H9c2): 32%; Survival rate (mice; Doxorubicin alone (1 x, 20 mg/kg i.p.)): 30%; Risk of developing congestive heart failure [13]: 48%
6 | COc1ccc([C@@H]2C[C@@H](O)[C@@]3(O)c4c(OC)cc(OC)cc4O[C@@]23c2ccccc2)cc1 [FL4] | > 10000 nM | > 10000 nM | > 10000 nM | > 10000 nM | > 10000 nM | > 10000 nM | > 10000 nM | – | – | – | – | – | – | – | – | –
7 | CCc1cc(-c2oncc2-c2ccc(OC)cc2)c(O)cc1OC [KRIBB3, reference compound] | – | – | – | – | – | – | – | – | – | – | – | – | – | – | – | Cytotoxicity of KRIBB3 on cardiomyocytes (H9c2 cardiomyocytes [8]; KRIBB3 1 μM, 1 h): induced a cytotoxicity
